Test results published in ChEMBL document CHEMBL4673388, “Enhancing Antimicrobial Peptide Potency through Multivalent Presentation on Coiled-Coil Nanofibrils” (ACS Med Chem Lett, 2021).
Converted amounts (≈) assume the structure as drawn. The source made the active and inactive calls. No cut-off for these calls is given here. Residues, ends and D or L forms follow the SMILES beside them.

Tests used:
[1] = system: Staphylococcus aureus; test: Antibacterial activity against methicillin-resistant Staphylococcus aureus ATCC 43300 assessed as inhibition of bacterial growth incubated for 16 to 20 hrs by microdilution method; type: functional; settings: time 16-20 hrs
[2] = system: Staphylococcus aureus; test: Antibacterial activity against Staphylococcus aureus ATCC 25923 assessed as inhibition of bacterial growth incubated for 16 to 20 hrs by microdilution method; type: functional; settings: time 16-20 hrs
[3] = system: Pseudomonas aeruginosa; test: Antibacterial activity against Pseudomonas aeruginosa ATCC 15442 assessed as inhibition of bacterial growth incubated for 16 to 20 hrs by microdilution method; type: functional; settings: time 16-20 hrs
[4] = system: Cell membrane; test: Disruption of cell membrane in methicillin-resistant Staphylococcus aureus ATCC 43300 assessed as complete rupture of bacterial cell surface at 9 ug/ml incubated for 3 hrs by scanning electron microscopy; type: subcellular; settings: dose 9.0 µg/ml
[5] = system: HEK293; test: Cytotoxicity against human HEK293 cells up to 90 ug/ml measured after 48 hrs by CCK8 assay; type: cell-based; settings: hek293, 48 h, dose <=90 µg/ml
[6] = Hemolytic activity in human red blood cells at 100 ug/ml incubated for 45 mins compound conjugated on alpha-helical colied-coil FF03 peptide; type: ADME, cell-based, Erythrocyte; settings: red blood cells (erythrocytes), at 100 µg/mL, read-out: Activity
[7] = system: Pseudomonas aeruginosa; test: Antibacterial activity against Pseudomonas aeruginosa ATCC 15442 assessed as inhibition of bacterial growth incubated for 16 to 20 hrs compound conjugated on alpha-helical coiled-coil FF03 peptide by microdilution method; type: functional; settings: time 16-20 hrs
[8] = system: Staphylococcus aureus; test: Antibacterial activity against methicillin-resistant Staphylococcus aureus ATCC 43300 assessed as inhibition of bacterial growth incubated for 16 to 20 hrs compound conjugated on alpha-helical coiled-coil FF03 peptide by microdilution method; type: functional; settings: time 16-20 hrs
[9] = system: Staphylococcus aureus; test: Bactericidal activity against methicillin-resistant Staphylococcus aureus ATCC 43300 assessed as reduction in bacterial growth at MIC measured for 25 hrs by time kill assay; type: functional, organism-based
[10] = system: MCF7; test: Cytotoxicity against human MCF7 cells up to 90 ug/ml measured after 48 hrs by CCK8 assay; type: cell-based; settings: mcf7, 48 h, dose <=90 µg/ml
[11] = system: Escherichia coli; test: Antibacterial activity against Escherichia coli ATCC 25922 assessed as inhibition of bacterial growth incubated for 16 to 20 hrs by microdilution method; type: functional; settings: time 16-20 hrs
[12] = system: Staphylococcus aureus; test: Antibacterial activity against Staphylococcus aureus ATCC 25923 assessed as inhibition of bacterial growth incubated for 16 to 20 hrs compound conjugated on alpha-helical coiled-coil FF03 peptide by microdilution method; type: functional; settings: time 16-20 hrs
[13] = system: MCF7; test: Cytotoxicity against human MCF7 cells up to 90 ug/ml measured after 48 hrs compound conjugated on alpha-helical coiled-coil FF03 peptide by CCK8 assay; type: cell-based; settings: mcf7, 48 h, dose <=90 µg/ml
[14] = system: HEK293; test: Cytotoxicity against human HEK293 cells up to 90 ug/ml measured after 48 hrs compound conjugated on alpha-helical coiled-coil FF03 peptide by CCK8 assay; type: cell-based; settings: hek293, 48 h, dose <=90 µg/ml
[15] = Hemolytic activity in human red blood cells at 100 ug/ml incubated for 45 mins; type: ADME, cell-based, Erythrocyte; settings: red blood cells (erythrocytes), at 100 µg/mL, read-out: Activity
[16] = system: Staphylococcus aureus; test: Bactericidal activity against methicillin-resistant Staphylococcus aureus ATCC 43300 assessed as reduction in bacterial growth at MIC compound conjugated on alpha-helical coiled-coil FF03 peptide measured within 5 hrs by time kill assay; type: functional, organism-based; settings: time hrs <=5
[17] = system: Escherichia coli; test: Antibacterial activity against Escherichia coli ATCC 25922 assessed as inhibition of bacterial growth incubated for 16 to 20 hrs compound conjugated on alpha-helical coiled-coil FF03 peptide by microdilution method; type: functional; settings: time 16-20 hrs

Compound: CC[C@H]1OC(=O)[C@H](C)[C@@H](O[C@H]2C[C@@](C)(OC)[C@@H](O)[C@H](C)O2)[C@H](C)[C@@H](O[C@@H]2O[C@H](C)C[C@H](N(C)C)[C@H]2O)[C@](C)(O)C[C@@H](C)C(=O)[C@H](C)[C@@H](O)[C@]1(C)O [ERYTHROMYCIN]
- MIC [1]: > 128 µM

Compound: CN[C@H](CC(C)C)C(=O)N[C@H]1C(=O)N[C@@H](CC(N)=O)C(=O)N[C@H]2C(=O)N[C@H]3C(=O)N[C@H](C(=O)N[C@H](C(=O)O)c4cc(O)cc(O)c4-c4cc3ccc4O)[C@H](O)c3ccc(c(Cl)c3)Oc3cc2cc(c3O[C@@H]2O[C@H](CO)[C@@H](O)[C@H](O)[C@H]2O[C@H]2C[C@](C)(N)[C@H](O)[C@H](C)O2)Oc2ccc(cc2Cl)[C@H]1O [VANCOMYCIN]
- MIC [1]: 0.5 µM (≈ 0.725 µg/mL)
- MIC [2]: 1.38 µM (≈ 2 µg/mL)

Compound: GENTAMICIN
- MIC [3]: 1.63 µM

Compound: COc1cc(Cc2cnc(N)nc2N)cc(OC)c1OC [TRIMETHOPRIM]
- MIC [1]: 2 µM (≈ 0.581 µg/mL)

Compound: CC(=O)NC[C@H]1CN(c2ccc(N3CCOCC3)c(F)c2)C(=O)O1 [LINEZOLID]
- MIC [1]: 4 µM (≈ 1.35 µg/mL)
- MIC [2]: 1.5 µM (≈ 0.506 µg/mL)

Compound: CC(C)C[C@H](NC(=O)[C@@H](N)CCCNC(=N)N)C(=O)N1CCC[C@H]1C(=O)N[C@@H](Cc1c[nH]c2ccccc12)C(=O)N[C@@H](CCCNC(=N)N)C(=O)N[C@@H](Cc1c[nH]c2ccccc12)C(=O)N1CCC[C@H]1C(=O)N[C@@H](CCCNC(=N)N)C(=O)N[C@@H](CCCNC(=N)N)C(=O)N1CCC[C@H]1C(=O)N[C@@H](Cc1c[nH]c2ccccc12)C(=O)N[C@@H](CCCNC(=N)N)C(=O)N[C@@H](CCCNC(=N)N)C(=O)O (H-RLPWRWPRRPWRR-OH)
- Activity [4]: Active
- Activity [5]: Non-Toxic
- MIC [1]: 130 µM (≈ 250 µg/mL)
- hemolysis at 0.75 h, 100 ug/ml [6]: < 15%
- MIC [7]: 1.36 µM (≈ 2.61 µg/mL)
- MIC [8]: 1.75 µM (≈ 3.36 µg/mL)
- Activity [9]: Active
- Activity [10]: Non-Toxic
- MIC [11]: 130 µM (≈ 250 µg/mL)
- MIC [12]: 0.97 µM (≈ 1.86 µg/mL)
- Activity [13]: Non-Toxic
- Activity [14]: Non-Toxic
- hemolysis at 0.75 h, 100 ug/ml [15]: < 15%
- Activity [16]: Active
- MIC [2]: 65.2 µM (≈ 125 µg/mL)
- MIC [3]: 65.2 µM (≈ 125 µg/mL)
- MIC [17]: 2.34 µM (≈ 4.49 µg/mL)

Compound: NC[C@H]1O[C@H](O[C@H]2[C@H](O)[C@@H](O[C@H]3O[C@H](CO)[C@@H](O)[C@H](N)[C@H]3O)[C@H](N)C[C@@H]2N)[C@H](O)[C@@H](O)[C@@H]1O [KANAMYCIN]
- MIC [1]: > 128 µM
